# Laboratory results reported in patent US9737535B2, “Methods for treating cancer using TOR kinase inhibitor combination therapy comprising administering substituted pyrazino[2,3-b]pyrazines” (Signal Pharmaceuticals, LLC, priority 2014, dated 2017).
# Tested on: MDA-MB-436
# Assay: Anti-proliferation assay (ATPLite), Chalice synergy score
# Assay type: cell-based
# Conditions: Compound 1 in combination with second active agent, mean self-cross + 2σ threshold 1.91
# Excerpt: (§1) Cells were thawed from a liquid nitrogen preserved state.
# (§2) The calculation for synergy score is provided below.
# (§3) If T≧V0:100*[1−(T−V0)/(V−V0)]
row,SMILES,Synergy score
1,C[C@]1(c2nc3c(C(N)=O)cccc3[nH]2)CCCN1 [ABT-888],0.32
2,COc1cc2c(NC3CCN(C4CCCCC4)CC3)nc(N3CCCN(C(C)C)CC3)nc2cc1OCCCN1CCCCC1 [UNC 0646],0.66
3,CC[C@@]1(O)C(=O)OCc2c1cc1n(c2=O)Cc2cc3cc(O)ccc3nc2-1 [10-Hydroxycamptothecin],3.62

# Tested on: HCC-1937
# Assay: as above
# Assay type: cell-based
# Conditions: Compound 1 in combination with the named second active agent, 72 h, mean of n = 3 experiments in triplicate
# Excerpt: as §1, §2, §3
row,SMILES,Synergy score
1,C[C@]1(c2nc3c(C(N)=O)cccc3[nH]2)CCCN1 [ABT-888],0.35
2,COc1cc2c(NC3CCN(C4CCCCC4)CC3)nc(N3CCCN(C(C)C)CC3)nc2cc1OCCCN1CCCCC1 [UNC 0646],0.54
3,CC[C@@]1(O)C(=O)OCc2c1cc1n(c2=O)Cc2cc3cc(O)ccc3nc2-1 [10-Hydroxycamptothecin],12.40

# Tested on: HCC-1428
# Assay: as above
# Assay type: cell-based
# Conditions: Compound 1 in combination with the named second active agent, 72 h, mean of n = 3 experiments in triplicate
# Excerpt: as §1, §2, §3
row,SMILES,Synergy score
1,C[C@]1(c2nc3c(C(N)=O)cccc3[nH]2)CCCN1 [ABT-888],0.09
2,COc1cc2c(NC3CCN(C4CCCCC4)CC3)nc(N3CCCN(C(C)C)CC3)nc2cc1OCCCN1CCCCC1 [UNC 0646],1.66
3,CC[C@@]1(O)C(=O)OCc2c1cc1n(c2=O)Cc2cc3cc(O)ccc3nc2-1 [10-Hydroxycamptothecin],4.13

# Tested on: HCC70
# Assay: as above
# Assay type: cell-based
# Conditions: Compound 1 in combination with second active agent; HCC-70; mean self-cross + 2σ threshold 3.45
# Excerpt: as §1, §2, §3
row,SMILES,Synergy score
1,C[C@]1(c2nc3c(C(N)=O)cccc3[nH]2)CCCN1 [ABT-888],1.10
2,COc1cc2c(NC3CCN(C4CCCCC4)CC3)nc(N3CCCN(C(C)C)CC3)nc2cc1OCCCN1CCCCC1 [UNC 0646],2.03
3,CC[C@@]1(O)C(=O)OCc2c1cc1n(c2=O)Cc2cc3cc(O)ccc3nc2-1 [10-Hydroxycamptothecin],6.31

# Tested on: BT-549
# Assay: as above
# Assay type: cell-based
# Conditions: Compound 1 in combination with the named second active agent, 72 h, mean of n = 3 experiments in triplicate
# Excerpt: as §1, §2, §3
row,SMILES,Synergy score
1,C[C@]1(c2nc3c(C(N)=O)cccc3[nH]2)CCCN1 [ABT-888],0.35
2,COc1cc2c(NC3CCN(C4CCCCC4)CC3)nc(N3CCCN(C(C)C)CC3)nc2cc1OCCCN1CCCCC1 [UNC 0646],0.91
3,CC[C@@]1(O)C(=O)OCc2c1cc1n(c2=O)Cc2cc3cc(O)ccc3nc2-1 [10-Hydroxycamptothecin],4.11

# Tested on: HCC-1806
# Assay: as above
# Assay type: cell-based
# Conditions: Compound 1 in combination with the named second active agent, 72 h, mean of n = 3 experiments in triplicate
# Excerpt: as §1, §2, §3
row,SMILES,Synergy score
1,C[C@]1(c2nc3c(C(N)=O)cccc3[nH]2)CCCN1 [ABT-888],0.56
2,COc1cc2c(NC3CCN(C4CCCCC4)CC3)nc(N3CCCN(C(C)C)CC3)nc2cc1OCCCN1CCCCC1 [UNC 0646],0.53
3,CC[C@@]1(O)C(=O)OCc2c1cc1n(c2=O)Cc2cc3cc(O)ccc3nc2-1 [10-Hydroxycamptothecin],3.88

# Tested on: Hs-578-T
# Assay: as above
# Assay type: cell-based
# Conditions: Compound 1 in combination with second active agent, mean self-cross + 2σ threshold 4.09
# Excerpt: as §1, §2, §3
row,SMILES,Synergy score
1,C[C@]1(c2nc3c(C(N)=O)cccc3[nH]2)CCCN1 [ABT-888],0.42
2,COc1cc2c(NC3CCN(C4CCCCC4)CC3)nc(N3CCCN(C(C)C)CC3)nc2cc1OCCCN1CCCCC1 [UNC 0646],2.20
3,CC[C@@]1(O)C(=O)OCc2c1cc1n(c2=O)Cc2cc3cc(O)ccc3nc2-1 [10-Hydroxycamptothecin],1.70

# Tested on: MDA-MB-157
# Assay: as above
# Assay type: cell-based
# Conditions: Compound 1 in combination with second active agent, mean self-cross + 2σ threshold 4.68
# Excerpt: as §1, §2, §3
row,SMILES,Synergy score
1,C[C@]1(c2nc3c(C(N)=O)cccc3[nH]2)CCCN1 [ABT-888],0.90
2,COc1cc2c(NC3CCN(C4CCCCC4)CC3)nc(N3CCCN(C(C)C)CC3)nc2cc1OCCCN1CCCCC1 [UNC 0646],1.05
3,CC[C@@]1(O)C(=O)OCc2c1cc1n(c2=O)Cc2cc3cc(O)ccc3nc2-1 [10-Hydroxycamptothecin],10.30

# Tested on: MDA-MB-468
# Assay: as above
# Assay type: cell-based
# Conditions: Compound 1 in combination with second active agent, mean self-cross + 2σ threshold 4.66
# Excerpt: as §1, §2, §3
row,SMILES,Synergy score
1,C[C@]1(c2nc3c(C(N)=O)cccc3[nH]2)CCCN1 [ABT-888],0.18
2,COc1cc2c(NC3CCN(C4CCCCC4)CC3)nc(N3CCCN(C(C)C)CC3)nc2cc1OCCCN1CCCCC1 [UNC 0646],2.08
3,CC[C@@]1(O)C(=O)OCc2c1cc1n(c2=O)Cc2cc3cc(O)ccc3nc2-1 [10-Hydroxycamptothecin],7.86

# Tested on: MCF7
# Assay: as above
# Assay type: cell-based
# Conditions: Compound 1 in combination with second active agent, mean self-cross + 2σ threshold 3.07
# Excerpt: as §1, §2, §3
row,SMILES,Synergy score
1,C[C@]1(c2nc3c(C(N)=O)cccc3[nH]2)CCCN1 [ABT-888],0.25
2,COc1cc2c(NC3CCN(C4CCCCC4)CC3)nc(N3CCCN(C(C)C)CC3)nc2cc1OCCCN1CCCCC1 [UNC 0646],3.27
3,CC[C@@]1(O)C(=O)OCc2c1cc1n(c2=O)Cc2cc3cc(O)ccc3nc2-1 [10-Hydroxycamptothecin],3.80

# Tested on: BT-474
# Assay: as above
# Assay type: cell-based
# Conditions: Compound 1 in combination with the named second active agent, 72 h, mean of n = 3 experiments in triplicate
# Excerpt: as §1, §2, §3
row,SMILES,Synergy score
1,C[C@]1(c2nc3c(C(N)=O)cccc3[nH]2)CCCN1 [ABT-888],0.09
2,COc1cc2c(NC3CCN(C4CCCCC4)CC3)nc(N3CCCN(C(C)C)CC3)nc2cc1OCCCN1CCCCC1 [UNC 0646],1.13
3,CC[C@@]1(O)C(=O)OCc2c1cc1n(c2=O)Cc2cc3cc(O)ccc3nc2-1 [10-Hydroxycamptothecin],1.20

# Tested on: MDA-MB-231
# Assay: as above
# Assay type: cell-based
# Conditions: Compound 1 in combination with second active agent, mean self-cross + 2σ threshold 2.61
# Excerpt: as §1, §2, §3
row,SMILES,Synergy score
1,C[C@]1(c2nc3c(C(N)=O)cccc3[nH]2)CCCN1 [ABT-888],0.22
2,COc1cc2c(NC3CCN(C4CCCCC4)CC3)nc(N3CCCN(C(C)C)CC3)nc2cc1OCCCN1CCCCC1 [UNC 0646],0.49
3,CC[C@@]1(O)C(=O)OCc2c1cc1n(c2=O)Cc2cc3cc(O)ccc3nc2-1 [10-Hydroxycamptothecin],8.55

# Tested on: BT-20
# Assay: as above
# Assay type: cell-based
# Design: scale not given here
# Conditions: Compound 1 in combination with the named second active agent, 72 h, mean of n = 3 experiments in triplicate
# Excerpt: as §1, §2, §3
row,SMILES,Synergy score
1,C[C@]1(c2nc3c(C(N)=O)cccc3[nH]2)CCCN1 [ABT-888],0.33
2,COc1cc2c(NC3CCN(C4CCCCC4)CC3)nc(N3CCCN(C(C)C)CC3)nc2cc1OCCCN1CCCCC1 [UNC 0646],2.59
3,CC[C@@]1(O)C(=O)OCc2c1cc1n(c2=O)Cc2cc3cc(O)ccc3nc2-1 [10-Hydroxycamptothecin],6.15

# Tested on: HCC-1187
# Assay: as above
# Assay type: cell-based
# Design: scale not given here
# Conditions: Compound 1 in combination with the named second active agent, 72 h, mean of n = 3 experiments in triplicate
# Excerpt: as §1, §2, §3
row,SMILES,Synergy score
1,C[C@]1(c2nc3c(C(N)=O)cccc3[nH]2)CCCN1 [ABT-888],1.28
2,COc1cc2c(NC3CCN(C4CCCCC4)CC3)nc(N3CCCN(C(C)C)CC3)nc2cc1OCCCN1CCCCC1 [UNC 0646],0.22
3,CC[C@@]1(O)C(=O)OCc2c1cc1n(c2=O)Cc2cc3cc(O)ccc3nc2-1 [10-Hydroxycamptothecin],6.49

# Tested on: HCC-1500
# Assay: as above
# Assay type: cell-based
# Design: scale not given here
# Conditions: Compound 1 in combination with the named second active agent, 72 h, mean of n = 3 experiments in triplicate
# Excerpt: as §1, §2, §3
row,SMILES,Synergy score
1,C[C@]1(c2nc3c(C(N)=O)cccc3[nH]2)CCCN1 [ABT-888],1.13
2,COc1cc2c(NC3CCN(C4CCCCC4)CC3)nc(N3CCCN(C(C)C)CC3)nc2cc1OCCCN1CCCCC1 [UNC 0646],1.11
3,CC[C@@]1(O)C(=O)OCc2c1cc1n(c2=O)Cc2cc3cc(O)ccc3nc2-1 [10-Hydroxycamptothecin],4.43
